This note sets out measurements from publication PMC8746528, “Novel Substituted Purine Isosteres: Synthesis, Structure-Activity Relationships and Cytotoxic Activity Evaluation” (Molecules, 2021).

Data set [1] concerns HCT116 colon cancer cell line. Briefly: MTT cell viability assay, HCT116. Type of data set: cell-based. The following applies: Homo sapiens, HCT-116, treatment 72 h and 96 h, mean ± SD of three experiments. As to the method: (§1) The human HCT116 colon cancer cell line and PC-3 prostate cancer cell line were obtained from the American Type Cell Culture (ATCC, Bethesda, Md). Both cell lines were grown in 75 cm^2 culture flasks at 37 °C in 5% CO2 using Roswell Park Memorial Institute 1640 medium (RPMI 1640, Gibco) and Dulbecco’s modified Eagle’s medium F/12 (DMEM/F-12, Gibco), respectively, containing 10% fetal bovine serum (FBS, Gibco). To test the inhibitory activities of compounds using a cell-based assay, MTT assay was performed for cell viability, as described previously. Briefly, HCT116 cells were plated at a density of 1500 per well, while PC-3 cells were plated at a density of 750 per well in a 96-well plate. After 24 h, cells were treated with the indicated compounds in a dose-dependent manner for 72 h and 96 h (all tested compounds provided clear solutions). MTT [3-(4,5-dimethylthiazol-2-yl)-2,5-diphenyltetrazolium bromide] (Sigma M-5655) was added at a final concentration of 0.5 mg/mL directly to each well for 4 h at 37 °C. The medium was aspirated, and the blue MTT formazan precipitate was dissolved in dimethyl sulfoxide (DMSO). Absorbance was determined in a Powerwave microplate spectrophotometer (Biotek Instruments, Inc.) at 540 nm. Viable cell numbers were determined by tetrazolium conversion to its formazan dye. The IC50 was calculated by Microsoft Excel equation and confirmed by GraphPad Prism (7.0). Each experiment was performed in triplicate and mean values ± SD are reported.
Background: Tetrazolium dyes change colour on reduction, which living cells bring about.

The test system of data set [2] is PC-3 prostate cancer cell line. Nature of the data set: MTT cell viability assay, PC-3. Type of data set: cell-based. The note with it: Homo sapiens, treatment 72 h and 96 h, mean ± SD of three experiments. Here is the method: as §1

Molecules are shown by their SMILES.

In general, IC50 refers to the concentration needed to halve the response being measured. Read a low IC50 as greater potency in that assay. A word on the melting point: it is the temperature, or range, at which the solid turns liquid. The compound `COc1ccc(Cn2cc(-c3ccccc3)c3ccnc(Nc4ccccc4)c32)cc1` [10a, 1-(4-Methoxybenzyl)-Ν,3-diphenyl-1H-pyrrolo[2,3-c]pyridin-7-amine] returned a melting point of 180 to 181 °C. Half-maximal inhibition in data set [1] (IC50) was put at 2.4 ± 0.1 µM. Moreover, the IC50 in data set [2] was more than 10 µM.

`COc1ccc(Cn2cc(-c3cccc(F)c3)c3ccnc(Nc4ccccc4)c32)cc1` [10b, 3-(3-Fluorophenyl)-1-(4-methoxybenzyl)-Ν-phenyl-1H-pyrrolo[2,3-c]pyridin-7-amine] displayed a melting point of 165 to 166 °C. Also, the IC50 in data set [1] is more than 10 µM. This compound came in with an IC50 in data set [2] of more than 10 µM.

Compound `COc1ccc(Cn2cc(-c3ccccc3)c3ccnc(Nc4cc(OC)c(OC)c(OC)c4)c32)cc1` [10c, 1-(4-Methoxybenzyl)-Ν-(3,4,5-trimethoxyphenyl)-3-phenyl-1H-pyrrolo[2,3-c]pyridin-7-amine] returned a melting point of 136 to 137 °C. The 50% inhibitory concentration (IC50) in data set [1] was 9.4 ± 0.53 µM. Moreover, the half-inhibitory concentration (IC50) in data set [2] stood at 9.8 ± 0.25 µM.

Regarding `COc1ccc(Cn2cc(-c3cccc(F)c3)c3ccnc(Nc4cc(OC)c(OC)c(OC)c4)c32)cc1` [10d, 3-(3-Fluorophenyl)-1-(4-methoxybenzyl)-Ν-(3,4,5-trimethoxyphenyl)-1H-pyrrolo[2,3-c]pyridin-7-amine], the melting point lay within 93 to 94 °C. This compound also returned an IC50 in data set [1] of more than 10 µM. The same compound showed an IC50 in data set [2] of more than 10 µM.

Turning to `COc1ccc(Cn2cc(-c3ccccc3)c3ccnc(N4CCN(C)CC4)c32)cc1` [13a, 1-(4-Methoxybenzyl)-7-(4-methylpiperazin-1-yl)-3-phenyl-1H-pyrrolo[2,3-c]pyridine], the melting point was in the range of 88 to 89 °C. For the same compound, in data set [1], the IC50 was determined as 5 ± 0.18 µM. The same compound gave an IC50 in data set [2] of 7 ± 0.4 µM.

Regarding `COc1ccc(Cn2cc(-c3cccc(F)c3)c3ccnc(N4CCN(C)CC4)c32)cc1` [13b, 3-(3-Fluorophenyl)-1-(4-methoxybenzyl)-7-(4-methylpiperazin-1-yl)-1H-pyrrolo[2,3-c]pyridine], the values for the IC50 in data set [1] and in data set [2] were 4.4 ± 0.35 µM and 9.3 ± 0.76 µM, respectively.

The compound `CN1CCN(c2nccc3c(-c4cccc(F)c4)c[nH]c23)CC1` [14f, 3-(3-Fluorophenyl)-7-(4-methylpiperazin-1-yl)-1H-pyrrolo[2,3-c]pyridine] registered a melting point of 209 to 210 °C. The same compound showed a half-maximal inhibitory concentration (IC50) in data set [1] of 2.35 ± 0.15 µM. The compound further yielded an IC50 in data set [2] of 2.35 ± 0.05 µM.

In the case of `COc1ccc(Cn2cc(-c3ccccc3)c3ncnc(Nc4ccccc4)c32)cc1` [24a, 5-(4-Methoxybenzyl)-Ν,7-diphenyl-5H-pyrrolo[3,2-d]pyrimidin-4-amine], the melting point lay within 57 to 58 °C. In data set [1], this compound registered a half-maximal inhibitory concentration (IC50) of more than 10 µM. Also, in data set [2], the half-maximal inhibitory concentration (IC50) is more than 10 µM.

Consider `COc1ccc(Cn2cc(-c3cccc(F)c3)c3ncnc(Nc4ccccc4)c32)cc1` [24b, 7-(3-Fluorophenyl)-5-(4-methoxybenzyl)-Ν-phenyl-5H-pyrrolo[3,2-d]pyrimidin-4-amine], for which the melting point lay within 131 to 132 °C. Besides, the IC50 in data set [1] is more than 10 µM. The IC50 in data set [2] was more than 10 µM.

For the compound `CN1CCN(c2ncnc3c(-c4cccc(F)c4)c[nH]c23)CC1` [26f, 7-(3-Fluorophenyl)-4-(4-methylpiperazin-1-yl)-5H-pyrrolo[3,2-d]pyrimidine], the IC50 in data set [1] and in data set [2] was more than 10 µM each time.

Regarding `c1ccc(Nc2ncnc3c(-c4ccccc4)n[nH]c23)cc1` [35a, N,3-Diphenyl-1H-pyrazolo[4,3-d]pyrimidin-7-amine], the values for the IC50 in data set [1] and in data set [2] were 7.3 ± 0.62 µM and 4.7 ± 0.18 µM, respectively.

`CN1CCN(c2ncnc3c(-c4ccccc4)n[nH]c23)CC1` [35e, 7-(4-Methylpiperazin-1-yl)-3-phenyl-1H-pyrazolo[4,3-d]pyrimidine]: the IC50 in data set [1] and in data set [2] was more than 10 µM each time.

As for `CN1CCN(c2ncnc3c(-c4cccc(F)c4)n[nH]c23)CC1` [35f, 3-(3-Fluorophenyl)-7-(4-methylpiperazin-1-yl)-1H-pyrazolo[4,3-d]pyrimidine], the IC50 in data set [1] and in data set [2] was more than 10 µM throughout.
